Among the data in patent publication US8436036B2, “Diaryl ethers” (Janssen R&D Ireland, priority 2009, dated 2013) are CC50 and EC50 values, retold here.

The nature of one data set: Cytotoxicity (Huh-7). The class given is cell-based. To be noted: human, Huh-7 cells. The source says:
The in vitro antiviral activity against HCV of the compounds of formula I can be tested in a cellular HCV replicon system based on Lohmann et al. (1999) Science 285:110-113, with the further modifications described by Krieger et al. (2001) Journal of Virology 75: 4614-4624 (incorporated herein by reference), which is further exemplified in the examples section. This model, while not a complete infection model for HCV, is widely accepted as the most robust and efficient model of autonomous HCV RNA replication currently available. It will be appreciated that it is important to distinguish between compounds that specifically interfere with HCV functions from those that exert cytotoxic or cytostatic effects in the HCV replicon model, and as a consequence cause a decrease in HCV RNA or linked reporter enzyme concentration. Assays are known in the field for the evaluation of cellular cytotoxicity based for example on the activity of mitochondrial enzymes using fluorogenic redox dyes such as resazurin. Furthermore, cellular counter screens exist for the evaluation of non-selective inhibition of linked reporter gene activity, such as firefly luciferase. Appropriate cell types can be equipped by stable transfection with a luciferase reporter gene whose expression is dependent on a constitutively active gene promoter, and such cells can be used as a counter-screen to eliminate non-selective inhibitors.

The next data set concerns HCV replicon. Briefly: HCV replicon assay (Huh-Luc cells, luciferase read-out). The class given is cell-based, HCV type Ib. The note with it: Hepatitis C virus, 72 h, three days incubation, luciferase activity. An excerpt: The compounds of formula (I) were examined for inhibitory activity in the HCV replicon. This cellular assay is based on a bicistronic expression construct, as described by Lohmann et al. (1999) Science vol. 285 pp. 110-113 with modifications described by Krieger et al. (2001) Journal of Virology 75: 4614-4624, in a multi-target screening strategy.
In essence, the method was as follows:
The assay utilized the stably transfected cell line Huh-7 luc/neo (hereafter referred to as Huh-Luc). This cell line harbors an RNA encoding a bicistronic expression construct comprising the wild type NS3-NS5B regions of HCV type Ib translated from an Internal Ribosome Entry Site (IRES) from encephalomyocarditis virus (EMCV), preceded by a reporter portion (FfL-luciferase), and a selectable marker portion (neo^R, neomycine phosphotransferase). The construct is flanked by 5′ and 3′ NTRs (non-translated regions) from HCV type Ib. Continued culture of the replicon cells in the presence of G418 (neo^R) is dependent on the replication of the HCV RNA. The stably transfected replicon cells that express HCV RNA, which replicates autonomously and to high levels, encoding inter alia luciferase, were used for screening the antiviral compounds.
The replicon cells were plated in 384 well plates in the presence of the test and control compounds which were added in various concentrations. Following an incubation of three days, HCV replication was measured by assaying luciferase activity (using standard luciferase assay substrates and reagents and a Perkin Elmer ViewLux™ ultraHTS microplate imager). Replicon cells in the control cultures have high luciferase expression in the absence of any inhibitor. The inhibitory activity of the compound on luciferase activity was monitored on the Huh-Luc cells, enabling a dose-response curve for each test compound. EC50 values were then calculated, which represent the amount of compound required to decrease the level of detected luciferase activity by 50%, or more specifically, to reduce the ability of the genetically linked HCV replicon RNA to replicate.

Bounds are passed on as bounds.

One may read the CC50 as the concentration giving 50% cytotoxicity. Broadly, the EC50 is the concentration that produces a half-maximal response. Take `O=C(Cc1ccccc1)N1CCC[C@H]1c1nc(-c2cccc(Oc3ccc(-c4cnc([C@@H]5CCCN5C(=O)Cc5ccccc5)[nH]4)cc3)c2)c[nH]1` [Example 9, 2-phenyl-1-((S)-2-(5-(4-(3-(2-((S)-1-(2-phenylacetyl)pyrrolidin-2-yl)-1H-imidazol-4-yl)phenoxy)phenyl)-1H-imidazol-2-yl)pyrrolidin-1-yl)ethanone]: the CC50 in “Cytotoxicity (Huh-7)” was more than 31.5 µM. Moreover, in the data set on HCV replicon, the EC50 came to 0.077 µM.
For `O=C(c1ccc(F)cc1)N1CCC[C@H]1c1nc(-c2cccc(Oc3ccc(-c4cnc([C@@H]5CCCN5C(=O)c5ccc(F)cc5)[nH]4)cc3)c2)c[nH]1` [Example 34], in that order: more than 31.5 µM and 4.34 µM.
For the compound `O=C(CCS(=O)(=O)c1ccccc1)N1CCC[C@H]1c1nc(-c2cccc(Oc3ccc(-c4cnc([C@@H]5CCCN5C(=O)CCS(=O)(=O)c5ccccc5)[nH]4)cc3)c2)c[nH]1` [Example 21], the cytotoxic concentration (CC50) in “Cytotoxicity (Huh-7)” was more than 31.5 µM. Moreover, in the data set on HCV replicon, the EC50 stood at 3.7 µM.
In the data set “Cytotoxicity (Huh-7)”, `O=C(c1ccoc1)N1CCC[C@H]1c1nc(-c2cccc(Oc3ccc(-c4cnc([C@@H]5CCCN5C(=O)c5ccoc5)[nH]4)cc3)c2)c[nH]1` [Example 32] gave a CC50 of more than 31.5 µM. Also, the concentration giving a half-maximal response (EC50) with HCV replicon amounted to 0.978 µM.
The like results for `O=C(Cc1cccnc1)N1CCC[C@H]1c1nc(-c2cccc(Oc3ccc(-c4cnc([C@@H]5CCCN5C(=O)Cc5cccnc5)[nH]4)cc3)c2)c[nH]1` [Example 18] were, in that order, more than 31.5 µM and 0.0543 µM.
In the data set “Cytotoxicity (Huh-7)”, `COc1cccc(CCC(=O)N2CCC[C@H]2c2nc(-c3cccc(Oc4ccc(-c5cnc([C@@H]6CCCN6C(=O)CCc6cccc(OC)c6)[nH]5)cc4)c3)c[nH]2)c1` [Example 27] had a CC50 of more than 31.5 µM. In addition, the EC50 with HCV replicon was found to be 3.53 µM.
